The species named for data set [1] is Homo sapiens. Put plainly: Selectivity index, ratio of EC50 for THRalpha (unknown origin) to EC50 for THRbeta (unknown origin).
Data set [2] in a line: Half life in Sprague-Dawley rat at 10 mg/kg, po measured up to 24 hrs by LC-MS/MS analysis. It counts as ADME, organism-based. Conditions: in vivo.
Data set [3] in a line: Half life in cynomolgus monkey at 10 mg/kg, po measured up to 24 hrs by LC-MS/MS analysis. The class given is ADME, organism-based, Macaca fascicularis. The settings on record: in vivo.
Data set [4] in a line: Half life in Beagle dog at 10 mg/kg, po measured up to 24 hrs by LC-MS/MS analysis. Conditions: in vivo. The class given is ADME, organism-based, Canis lupus familiaris.
For data set [5], the species on record is Rattus norvegicus. Put plainly: Antihyperlipidemic activity in high cholesterol diet-induced Sprague-Dawley rat model of hypercholesterolemia assessed as reduction in serum total cholesterol level after 24 hrs. The class given is functional, organism-based.
Data set [6] relates to Mus musculus. Description: Anti-hepatosteatosis activity in C57BL/6J mouse model of high fat-induced obesity assessed as reduction in liver steatosis at 30 mg/kg, po via gavage administered once daily for 28 days by hematoxylin-eosin staining based histological analysis. It counts as functional, organism-based. The settings on record: time 28.0 day.
For data set [7], the system named is Mus musculus. Put plainly: Antifibrotic activity in CCl4-induced C57BL/6J mouse model of liver fibrosis assessed as reduction in liver fibrosis at 30 mg/kg, po via gavage administered once daily for 28 days by Sirius Red staining based histological analysis. Conditions: time 28.0 day. The class given is functional, organism-based.
A short description of data set [8]: Plasma clearance in Sprague-Dawley rat at 1 mg/kg, iv and 2 mg/kg, po. It counts as ADME, organism-based.
A short description of data set [9]: Dissociation constant, pKa of compound. The class given is physicochemical.
The nature of data set [10]: AUC (0 to 24 hrs) in C57BL/6J mouse at 30 mg/kg, po administered via gavage as single dose. It counts as ADME, organism-based. More on the design: time < 24 hr, route oral, dose 30 mg/kg. Conditions: in vivo.
The nature of data set [11]: Oral bioavailability in Sprague-Dawley rat at 2 mg/kg. It counts as ADME, organism-based. Conditions: in vivo.
Data set [12] is described as follows: Volume of distribution at steady state in Sprague-Dawley rat at 1 mg/kg, iv and 2 mg/kg, po. The class given is ADME, organism-based. The settings on record: in vivo, read-out: Vdss.
The subject of data set [13] is Mus musculus. Put plainly: Agonist activity at THRbeta in C57BL/6J mouse model of NASH assessed as increase in CYP7A1 gene expression in liver at 30 mg/kg, po via gavage administered once daily for 28 days. The class given is functional, organism-based. The settings on record: time 28.0 day.
Data set [14] is described as follows: MRT in Sprague-Dawley rat at 3 mg/kg, ip. The class given is ADME, organism-based. The settings on record: in vivo.
A short description of data set [15]: Tmax in Sprague-Dawley rat at 3 mg/kg, ip. Conditions: in vivo. The class given is ADME, organism-based.
In data set [16] the test system is Mus musculus. Put plainly: Agonist activity at THRbeta in C57BL/6J mouse model of NASH assessed as increase in Dio1 gene expression in liver at 30 mg/kg, po via gavage administered once daily for 28 days. The settings on record: time 28.0 day. It counts as functional, organism-based.

The structures appear in SMILES notation. Active and inactive are the calls of the source.

`CC(C)c1cc(Oc2c(Cl)cc(-n3nc(C#N)c(=O)[nH]c3=O)cc2Cl)n[nH]c1=O`: the Ratio EC50 in data set [1] stood at 15.

As to `CC(C)c1cc(C(=O)c2c(Cl)cc(NC(=O)c3noc(=O)[nH]3)cc2Cl)nn(C)c1=O`, the Ratio EC50 in data set [1] came out at 6.1.

As for `CC(C)(C)c1cc(Oc2c(Cl)cc(NC(=O)c3noc(=O)[nH]3)cc2Cl)n[nH]c1=O`, in data set [1], the Ratio EC50 was 12.3.

For `Cc1cc(OCP(=O)(O)O)cc(C)c1Cc1ccc(O)c(C(C)C)c1` [MB07344], the half-life is 9.3 h in [2], 6.5 h in [3] and 10.2 h in [4]. The Ratio EC50 in [1] is 2.1.

For `CC(O)c1cc(Oc2c(Cl)cc(NC(=O)c3noc(=O)[nH]3)cc2Cl)n[nH]c1=O` (racemic), the Ratio EC50 in [1] was 16.5.

As to `CC(C)c1cc(Oc2c(Cl)cc(NC(=O)c3noc(=O)[nH]3)cc2Cl)n[nH]c1=O`, the Ratio EC50 in data set [1] came to 21.6. For the same compound, the Activity entry in data set [5] is “Dose-dependent effect”.

Take `CC(C)c1cc(C(=O)c2c(Cl)cc(NCc3noc(=O)[nH]3)cc2Cl)nn(C)c1=O`: in data set [1], the Ratio EC50 was 0.8.

Consider `CC(C)c1cc(Oc2c(Cl)cc(NCc3noc(=O)[nH]3)cc2Cl)nn(C)c1=O`, for which the Ratio EC50 in [1] turned out to be 8.6.

As to `CC(C)c1cc(Cc2c(Cl)cc(NC(=O)c3noc(=O)[nH]3)cc2Cl)nn(C)c1=O`, the Ratio EC50 in data set [1] was 14.5.

As for `CC(C)c1cc(Cc2c(Cl)cc(NCc3noc(=O)[nH]3)cc2Cl)nn(C)c1=O`, the Ratio EC50 in data set [1] was determined as 1.7.

`CCC(O)c1cc(Oc2c(Cl)cc(NC(=O)c3noc(=O)[nH]3)cc2Cl)n[nH]c1=O` (racemic): the Ratio EC50 in data set [1] was 16.2.

On to `CC(CO)c1cc(Oc2c(Cl)cc(NC(=O)c3noc(=O)[nH]3)cc2Cl)nn(C)c1=O` (racemic), for which the Ratio EC50 in data set [1] was determined as 9.2.

On to `CC(C)c1cc(Oc2c(Cl)cc(N(C)Cc3noc(=O)[nH]3)cc2Cl)nn(C)c1=O`, for which the Ratio EC50 in data set [1] stood at 0.5.

For `CC(C)c1cc(Oc2c(Cl)cc(NC(=O)c3noc(=O)[nH]3)cc2Cl)nn(C)c1=O`, the Ratio EC50 in [1] is 14.1. The outcome in data set [6], in data set [7], in [13] and in data set [16] was Active. In addition, in data set [5], the Activity result was “Dose-dependent effect”. The compound further gave a clearance in data set [8] of 13 mL/min/kg. Further, the pKa in [9] amounted to 4.5. This compound also gave an AUC(0-t) at 24 h in data set [10] of 17200 ng·h/mL. The bioavailability in data set [11] turned out to be 24%. The Vd in data set [12] amounted to 0.53 L/kg. In addition, the MRT in [14] stood at 1.8 h. The Tmax in [15] was determined as 1 h.

Turning to `CC(C)c1cc(Oc2c(Cl)cc(NC(C)c3noc(=O)[nH]3)cc2Cl)nn(C)c1=O` (racemic), in data set [1], the Ratio EC50 was 0.2.

On to `CC(C)c1cc(Oc2c(Cl)cc(NCc3noc(=O)[nH]3)cc2Cl)n[nH]c1=O`, for which, in data set [1], the Ratio EC50 was found to be 1.8.

As to `CC(C)(O)c1cc(Oc2c(Cl)cc(NC(=O)c3noc(=O)[nH]3)cc2Cl)n[nH]c1=O`, the Ratio EC50 in [1] is 11.1.

One may read the half-life as the time needed for the level to fall by half in the phase considered. The pKa is the pH at which an ionisable group is half protonated. As a reminder, the AUC(0-t) is the area under the concentration-time curve up to a stated or last time point. In general, bioavailability refers to the share of a dose that reaches the circulation, judged against a reference dose that is usually intravenous. One may read the MRT as the average time that molecules of a dose stay in the body. As a reminder, the Tmax is the time at which the peak concentration occurs.
